Values quoted from earlier work, collected in US20220387447A1, “FORMULATIONS OF TESTOSTERONE AND METHODS OF TREATMENT THEREWITH” (BOARD OF REGENTS, THE UNIVERSITY OF TEXAS SYSTEM, priority 2016, published 2022).

Key:
women = settings: single-dose administration, sublingually
[1] = intranasal administration; baseline mean 2.5 pmol/L

For `CC12CCC(=O)C=C1CCC1C2CCC2(C)C(O)CCC12` (centres unmarked) [testosterone, Testosterone], the “subjective sexual desire, genital responsiveness, and genital arousal” value (women) is given as “increase” and the “maximum testosterone concentration (mean)” value [1] is given as 168.2 pmol/L.
